Measurements as given in patent US20170258871A1, “COMBINED USE OF A TRKA INHIBITOR AND AN EPHA2 INHIBITOR FOR USING IN THE TREATMENT OF SOLID CANCERS, AND METHOD FOR THE PROGNOSIS OF SURVIVAL OF A PATIENT WHO HAS A SOLID CANCER” (UNIVERSITE DES SCIENCES ET TECHNOLOGIES DE LILLE, priority 2014, published 2017).

Test system: MDA-MB-231 HA-TrkA tumours
Test: Xenograft of MDA-MB-231 HA-TrkA in SCID mice, tumour volume (Experiment 1)
Assay type: in vivo
Conditions: 3 injections every 3 days from day 14; CEP-701 10 mg/kg intraperitoneal, siEphA2 7.5 microg/mouse close to the tumour
Experimental: FIG. 9: A study of the inhibition of TrkA and EphA2 on tumour development in vivo. The tumours were developed without any intervention for 14 days and then subjected to 3 injections (every 3 days, black arrows) of solvent (control), CEP-701 (10 mg/kg), siEphA2 (7.5 microg/mouse) or CEP-701 (10 mg/kg) and siEphA2 (7.5 microg/mouse). The experiments were stopped 31 days after the first injection of the treatment for ethical considerations after the death of the control mice. A) The tumour volumes were evaluated by measuring the length (;) and the width (w) and then calculating the volume using the formula π/6×l×W×(l+w)/2; the Mann and Whitney test was carried out between the control group and CEP-701 (a), between the control groups and siEphA2 (b), between the control groups and CEP-701+siEphA2 (c), and between the groups siEphA2 and CEP-701+siEphA2 (d)*, P<0.05; **, P<0.01; ns: not significant. B) Study of the inhibition of the expression of receptors by siRNA on the overall survival of SCID mice. […] The tumour volumes were evaluated by measuring the length (l) and width (w) and then calculating the volume using the formula π/6×l×W×(l+w)/2. […] Significance was measured using the log-rank test (P=0.0022). […]
Experiment 1: the mice used were six-week old SCID females. […] The tumour volume was measured according to the following formula: π/6×length×width×(width+length)/2. […]

In the case of “siEphA2: siRNA against EphA2, GCAAGGAAGUGGUACUGCUGGACUU (SEQ ID NO: 1) (listed as RNA, chemistry not given here)”, the “tumour volume / growth of xenografted tumours vs control” value is reported as “strongly reduces the growth of xenografted tumours”.
